Measured values taken from PMC11350868, “A Novel Bacitracin-like Peptide from Mangrove-Isolated Bacillus paralicheniformis NNS4-3 against MRSA and Its Genomic Insights” (Antibiotics, 2024).
≈ marks a conversion by molar mass, not a printed value. Read-outs that look alike come from different tables or passages of the source. Non-standard residues stand in square brackets, D forms with d. No end group written: not given here. Orn = NCCC[C@H](N)C(=O)O

Key:
[1] = system: Bacillus paralicheniformis NNS4-3; assay: Antibiotic susceptibility test of NNS4-3 (disc diffusion); assay type: cell-based; conditions: disc diffusion on MH agar, 30 °C, 24 h, triplicate; result in words (Figure S1)
Procedure: The susceptibility of NNS4-3 to the standard antibiotics was studied by a disc diffusion assay. The isolate was inoculated at 30 °C with shaking at 150 rpm for 24 h in ZM broth. The culture was adjusted to 0.1 OD at 625 nm before being spread onto the MH agar. The antibiotic discs (Oxoid Ltd., Hampshire, UK) of ciprofloxacin (5 µg), piperacillin (100 µg) combined with tazobactam (10 µg), imipenem (10 µg), ceftriaxone (30 µg), cefoxitin (30 µg), doxycycline (30 µg), vancomycin (30 µg), erythromycin (15 µg), and gentamicin (10 µg) were placed on the culture-seeded agar and then incubated at 30 °C for 24 h. The susceptibility tests were conducted in triplicate. The inhibition zones were presented as mean ± SD.

S. aureus TISTR 517 [2] = assay: SEM of treated cells (morphological changes); assay type: cell-based, Staphylococcus aureus; conditions: 1× MIC, 18 h incubation, 20,000× magnification
Procedure: (§1) The treatment effect of NNS4-3 AMP on tested bacterial cells was investigated by observing morphological changes under SEM. S. aureus TISTR 517 and MRSA strain 2468 were precultured in MH broth for 18 h before being centrifuged to harvest the cell pellet. Cell pellets of both strains were washed with 0.85% sterile NaCl solution 3 times to remove exopolysaccharide. The washed cells were then dispersed in CAMHB to adjust cell turbidity to 0.1 OD at 625 nm. The prepared cells were diluted to 5 × 10^5 CFU/mL with CAMHB before being treated with NNS4-3 AMP. […] The sample for SEM micrography was prepared by fixing the bacterial sample in 2.5% glutaraldehyde in 0.1 M phosphate buffer pH 7.2 for 24 h before ethanol dehydration of the sample. The complete ethanol removal from the prepared sample was conducted by a critical point drying machine (Quorum Technologies Ltd., Lewes, East Sussex, UK).

MRSA strain 2468 [3] = assay: SEM of treated cells (morphological changes); assay type: cell-based, Staphylococcus aureus; conditions: 1× MIC, 18 h incubation, 20,000× magnification
Procedure: as §1

MRSA strain 142 [4] = assay: Agar well diffusion assay; assay type: cell-based, Staphylococcus aureus; conditions: 100 µL CFS of 3-day culture in 9 mm wells, controls 30 µg, MH agar, 37 °C, 18 h, mean ± SD, n = 3
Procedure: (§2) The active isolates from the agar overlay assay were inoculated in broth. The types of broth media were the same as those used during the initial isolation. The liquid cultures were incubated at 30 °C with shaking at 150 rpm for 18 h. The optical density of the starter culture was adjusted to a turbidity of 0.1 OD at 625 nm with 0.85% sterile NaCl solution before transferring 1 mL of the culture into 49 mL of fresh broth. The inoculum was then incubated at 30 °C and 150 rpm for 3 days. The cell-free supernatant (CFS) was collected by centrifugation at 10,000× g at 4 °C for 15 min and filtered using a 0.2 µm sterile cellulose acetate syringe filter (Sigma-Aldrich, Warren, MI, USA). The antibacterial activity of the isolates was studied using S. aureus TISTR 517, obtained from the Thailand Institute of Scientific and Technological Research (TISTR), Thailand. The three strains of MRSA (strains 142, 1096, and 2468) were kindly provided by the medical technology laboratory of the School of Allied Health Sciences, Walailak University, Thailand. The pathogenic bacteria were incubated at 37 °C for 18 h on MH agar. The microbial indicators were prepared to a turbidity equivalent to 0.1 OD at 625 nm before being spread on MH agar. The CFS of 100 µL was aseptically transferred to 9 mm diameter wells, followed by an incubation period at 37 °C for 18 h. Cefoxitin (30 µg) and vancomycin (30 µg) (Sigma-Aldrich Co., St. Louis, MO, USA) were employed as positive controls. The experiment was conducted in triplicate and the mean ± SD of the diameters of the inhibition zones was measured.
(§3) The sample was incubated at 30 °C with shaking at 150 rpm for 7 days. The OD at 625 nm of the inoculum was measured and the CFS was collected at 0, 4, 8, 12, 16, 20, and 24 h on the first day of incubation and then once a day until the seventh day of incubation. The bacterial growth was observed by measuring OD at 625 nm and the collected CFS at all time points was evaluated for antibacterial activity using the agar well diffusion assay against S. aureus TISTR 517 and three strains of MRSA. The experiment was performed in triplicate. […] The kinetics of the antimicrobial compounds’ production curve with mean ± SD were presented.

MRSA strain 1096 [5] = assay: Agar well diffusion assay; assay type: cell-based, Staphylococcus aureus; conditions: 100 µL CFS of 3-day culture in 9 mm wells, controls 30 µg, MH agar, 37 °C, 18 h, mean ± SD, n = 3
Procedure: as §2, §3

S. aureus TISTR 517 [6] = assay: Agar well diffusion assay; assay type: cell-based, Staphylococcus aureus; conditions: 100 µL CFS of 3-day culture in 9 mm wells, controls 30 µg, MH agar, 37 °C, 18 h, mean ± SD, n = 3
Procedure: as §2, §3

MRSA strain 2468 [7] = assay: Agar well diffusion assay; assay type: cell-based, Staphylococcus aureus; conditions: 100 µL CFS of 3-day culture in 9 mm wells, controls 30 µg, MH agar, 37 °C, 18 h, mean ± SD, n = 3
Procedure: as §2, §3

MRSA strain 142 [8] = assay: microbe, parasite or virus in culture; assay type: cell-based, Staphylococcus aureus; conditions: Staphylococcus aureus, MRSA, 24 h
Procedure: (§4) The MIC and MBC of the purified peptide of NNS4-3 were determined against various strains of S. aureus. The broth microdilution method followed the guidance provided by the Clinical and Laboratory Standards Institute (CLSI). Pathogenic bacteria, such as S. aureus TISTR 517 and MRSA strains 142, 1096, and 2468, were used as test strains and cultured on MH agar at 37 °C for 18 h. A single colony of each tested bacterium was suspended in 0.85% NaCl until its turbidity reached an OD of 0.1 at 625 nm (1 × 10^8 CFU/mL). The bacterial cells were diluted to 5 × 10^6 CFU/mL using cation-adjusted Mueller Hinton broth (CAMHB). The diluted cell suspension (10 µL) was transferred to each well of a 96-well plate. With a total volume of 100 µL in each well, the purified AMP was added to each well to obtain final concentrations between 0.125 and 64 µg/mL. Standard antibiotics (vancomycin and cefoxitin) and antibiotic-free samples were used as positive and negative controls, respectively. The 96-well plate was incubated at 37 °C for 24 h. The experiment was carried out in triplicate for each strain. […] Subsequently, 100 µL of each dilution was spread on MH agar and then incubated at 37 °C for 24 h. The MBC was identified as the lowest concentration at which no bacterial colony growth was observed on the plate.

MRSA strain 1096 [9] = assay: microbe, parasite or virus in culture; assay type: cell-based, Staphylococcus aureus; conditions: Staphylococcus aureus, MRSA, 24 h
Procedure: as §4

S. aureus TISTR 517 [10] = assay: microbe, parasite or virus in culture; assay type: cell-based, Staphylococcus aureus; conditions: Staphylococcus aureus
Procedure: as §4

MRSA strain 2468 [11] = assay: microbe, parasite or virus in culture; assay type: cell-based, Staphylococcus aureus; conditions: Staphylococcus aureus, MRSA, 24 h
Procedure: as §4

MSSA strain RN4420 = conditions: ref [41]; cited from earlier work
Description: The literature search could support the observed difference in MIC between MSSA and MRSA strains.

MRSA strain MW2 = conditions: ref [41]; cited from earlier work
[12] = bacitracin from Bacillus paralicheniformis UBBLi30, ref [42], cited from earlier work
[13] = broth microdilution, CAMHB, 37 °C, 0.125-64 µg/mL, triplicate, read-out: MIC

Compound: CO/N=C(\C(=O)N[C@@H]1C(=O)N2C(C(=O)O)=C(CSc3nc(=O)c(=O)[nH]n3C)CS[C@H]12)c1csc(N)n1 [ceftriaxone]
- antibiotic susceptibility of the NNS4-3 isolate [1]: tolerated

Compound: CO[C@@]1(NC(=O)Cc2cccs2)C(=O)N2C(C(=O)O)=C(COC(N)=O)CS[C@@H]21 [Cefoxitin]
- morphological changes under SEM (S. aureus TISTR 517 [2]): cellular lysis
- morphological changes under SEM (MRSA strain 2468 [3]): good tolerance
- Zone of Inhibition (MRSA strain 142 [4]): 0.00 ± 0.00 mm
- Zone of Inhibition (MRSA strain 1096 [5]): 0.00 ± 0.00 mm
- Zone of Inhibition (S. aureus TISTR 517 [6]): 35.87 ± 0.46 mm
- Zone of Inhibition (MRSA strain 2468 [7]): 0.00 ± 0.00 mm
- MIC (MRSA strain 142 [8]; [13]): > 64 µg/mL
- MIC (MRSA strain 1096 [9]; [13]): > 64 µg/mL
- MIC (S. aureus TISTR 517 [10]; TISTR517, broth microdilution, CAMHB, 37 °C, 24 h, 0.125-64 µg/mL, triplicate, read-out: MIC): 2 µg/mL (≈ 4.68 µM)
- MBC (S. aureus TISTR 517 [10]; TISTR517, plated on MH agar after MIC, 37 °C, 24 h, triplicate, read-out: MBC): 2 µg/mL (≈ 4.68 µM)
- MIC (MRSA strain 2468 [11]; [13]): > 64 µg/mL
- antibiotic susceptibility of the NNS4-3 isolate [1]: moderate to high susceptibility

Compound: C[C@H]1c2cccc(O)c2C(=O)C2=C(O)[C@]3(O)C(=O)C(C(N)=O)=C(O)[C@@H](N(C)C)[C@@H]3[C@@H](O)[C@@H]21 [doxycycline]
- antibiotic susceptibility of the NNS4-3 isolate [1]: moderate to high susceptibility

Compound: CNC(C)C1CCC(N)C(OC2C(N)CC(N)C(OC3OCC(C)(O)C(NC)C3O)C2O)O1 (stereo not shown) [gentamicin]
- antibiotic susceptibility of the NNS4-3 isolate [1]: moderate to high susceptibility

Compound: O=C(O)c1cn(C2CC2)c2cc(N3CCNCC3)c(F)cc2c1=O [ciprofloxacin]
- antibiotic susceptibility of the NNS4-3 isolate [1]: high potency inhibition

Compound: CC[C@H]1OC(=O)[C@H](C)[C@@H](O[C@H]2C[C@@](C)(OC)[C@@H](O)[C@H](C)O2)[C@H](C)[C@@H](O[C@@H]2O[C@H](C)C[C@H](N(C)C)[C@H]2O)[C@](C)(O)C[C@@H](C)C(=O)[C@H](C)[C@@H](O)[C@]1(C)O [erythromycin]
- antibiotic susceptibility of the NNS4-3 isolate [1]: highest susceptibility

Compound: CN[C@H](CC(C)C)C(=O)N[C@H]1C(=O)N[C@@H](CC(N)=O)C(=O)N[C@H]2C(=O)N[C@H]3C(=O)N[C@H](C(=O)N[C@H](C(=O)O)c4cc(O)cc(O)c4-c4cc3ccc4O)[C@H](O)c3ccc(c(Cl)c3)Oc3cc2cc(c3O[C@@H]2O[C@H](CO)[C@@H](O)[C@H](O)[C@H]2O[C@H]2C[C@](C)(N)[C@H](O)[C@H](C)O2)Oc2ccc(cc2Cl)[C@H]1O [Vancomycin]
- morphological changes under SEM (S. aureus TISTR 517 [2]): cellular lysis
- morphological changes under SEM (MRSA strain 2468 [3]): irregular shape
- Zone of Inhibition (MRSA strain 142 [4]): 24.13 ± 1.27 mm
- Zone of Inhibition (MRSA strain 1096 [5]): 24.38 ± 0.51 mm
- Zone of Inhibition (S. aureus TISTR 517 [6]): 23.37 ± 1.27 mm
- Zone of Inhibition (MRSA strain 2468 [7]): 24.64 ± 1.02 mm
- MBC (MRSA strain 142 [8]): 2 µg/mL (≈ 1.38 µM)
- MIC (MRSA strain 142 [8]): 2 µg/mL (≈ 1.38 µM)
- MBC (MRSA strain 1096 [9]): 2 µg/mL (≈ 1.38 µM)
- MIC (MRSA strain 1096 [9]): 2 µg/mL (≈ 1.38 µM)
- MBC (S. aureus TISTR 517 [10]; TISTR517, 24 h): 2 µg/mL (≈ 1.38 µM)
- MIC (S. aureus TISTR 517 [10]; TISTR517, 24 h): 2 µg/mL (≈ 1.38 µM)
- MBC (MRSA strain 2468 [11]): 2 µg/mL (≈ 1.38 µM)
- MIC (MRSA strain 2468 [11]): 2 µg/mL (≈ 1.38 µM)
- antibiotic susceptibility of the NNS4-3 isolate [1]: moderate to high susceptibility

Compound: C[C@@H](O)[C@H]1C(=O)N2C(C(=O)O)=C(SCCN=CN)C[C@H]12 [imipenem]
- antibiotic susceptibility of the NNS4-3 isolate [1]: high potency inhibition

Compound: LCLEIK[Orn]IFHDN [bacitracin, AMP constructed by non-ribosomal peptide synthesis; literature values]
- MIC (MSSA strain RN4420): 64 µg/mL
- MIC (MRSA strain MW2): 32 µg/mL
- activity after autoclaving ([12]; autoclaving for 15 min): 80%
- activity at pH 14 ([12]; pH 14, 1 h): lost
